In data set [1] the test system is rabbit. As to conditions: Prenatal developmental toxicity study, new zealand white, Oral, Gavage/Intubation, dose end: 18 GD.
A further data set relates to dog. Conditions: Chronic toxicity, beagle, Oral, Feed, dose end: 104 week.
In data set [2] the test system is rat. As to conditions: Prenatal developmental toxicity study, sprague dawley, Injection, Intraperitoneal, dose end: 15 GD.
Data set [3] deals with rat. Conditions: Sub-acute repeat dose toxicity, sprague dawley, Oral, Gavage/Intubation, dose end: 28 day.
Data set [4] has as its system rat. Conditions: Prenatal developmental toxicity study, sprague dawley, Oral, Gavage/Intubation, dose end: 15 GD.
In data set [5] the test system is rabbit. As to conditions: Prenatal developmental toxicity study, new zealand white, Oral, Gavage/Intubation, dose end: 18 GD. The source holds these as a separate data set.
Data set [6] deals with rat. As to conditions: Prenatal developmental toxicity study, sprague dawley, Oral, Gavage/Intubation, dose end: 15 GD. The source holds these as a separate data set.
Data set [7] deals with rat. As to conditions: Multigenerational reproductive toxicity study, sprague dawley, Oral, Feed, dose end: 2 generation.
Setting [8] is: group: cholinesterase, cholinesterase / cholinesterase / cholinesterase / brain (regional) cholinesterase (che) + cholinesterase / cholinesterase / cholinesterase….
[9] abbreviates: group: developmental, developmental / developmental malformation / bone / [other].
The mark [10] stands for this setting: group: maternal, systemic / in life observation / body weight / body weight + systemic / in life observation / body weight / body weight gain + systemic / in….
Where [11] appears, read: group: cholinesterase, cholinesterase / cholinesterase / cholinesterase / plasma cholinesterase (che) + cholinesterase / cholinesterase / cholinesterase / brain ….
The mark [12] stands for this setting: group: systemic, systemic / clinical chemistry / alkaline phosphatase (alp/alk) / alkaline phosphatase (alp/alk).
[13] abbreviates: group: developmental, systemic / in life observation / body weight / fetal weight.
Where [14] appears, read: group: maternal, systemic / in life observation / clinical signs / [other] + systemic / in life observation / clinical signs / altered breathing rate + ….
The mark [15] stands for this setting: group: maternal, reproductive / reproductive performance / estrous cycle / abnormal.
Where [16] appears, read: group: systemic, systemic / clinical chemistry / alanine aminotransferase (alt/sgpt) / alanine aminotransferase (alt/sgpt) + systemic / clinical chemistry / ….
Setting [17] is: group: systemic, systemic / organ weight / uterus / relative to body weight + systemic / organ weight / seminal vesicle / relative to body weight.
[18] abbreviates: group: developmental, developmental / developmental malformation / bone / enlarged fontanel + developmental / developmental malformation / bone / incomplete ….
[19] abbreviates: group: maternal, systemic / in life observation / clinical signs / motor activity + systemic / in life observation / clinical signs / respiration (rales) + ….
Setting [20] is: group: developmental, developmental / developmental malformation / bone / full supernumerary + developmental / developmental malformation / bone / incomplete ….
Where [21] appears, read: group: maternal, reproductive / reproductive performance / postimplantation loss / postimplantation loss + systemic / in life observation / clinical signs / ….
[22] abbreviates: group: developmental, developmental / developmental malformation / bone / full supernumerary + developmental / developmental malformation / diaphragm / ….
Setting [23] is: group: maternal, systemic / in life observation / body weight / body weight gain + systemic / in life observation / clinical signs / discharge on cageboard….
Where [24] appears, read: group: offspring, developmental / offspring survival late / lactation index / lactation index + developmental / offspring survival late / viability index / ….
Where [25] appears, read: group: parental, systemic / in life observation / body weight / body weight + systemic / in life observation / body weight / body weight gain.
The mark [26] stands for this setting: group: parental, systemic / in life observation / body weight / body weight + systemic / in life observation / body weight / body weight gain + systemic / in….

Turning to `CCOP(=S)(NC(C)C)Oc1ccccc1C(=O)OC(C)C` (stereo unspecified) [Isofenphos], the LEL was determined as 1.25 mg/kg/day with rabbit [1] (setting [8]); 7.5 mg/kg/day with rabbit [1] (setting [9]); 7.5 mg/kg/day with rabbit [1] (setting [10]); 0.45 mg/kg/day in the data set on dog (group: cholinesterase, cholinesterase / cholinesterase / cholinesterase / plasma cholinesterase (che) + cholinesterase / cholinesterase / cholinesterase / …); 3.43 mg/kg/day in the data set with dog (setting [12]). In addition, the LOAEL with rabbit [1] (setting [8]) is 1.25 mg/kg/day; in the data set on rabbit [1] (setting [9]), more than 7.5 mg/kg/day; in the data set on rabbit [1] (setting [10]), 7.5 mg/kg/day; in the data set on dog (group: cholinesterase, cholinesterase / cholinesterase / cholinesterase / plasma cholinesterase (che)), 0.45 mg/kg/day; in the data set with dog (setting [12]), more than 3.43 mg/kg/day. Besides, the NEL was found to be 0.25 mg/kg/day with rabbit [1] (setting [8]); 1.25 mg/kg/day in the data set on rabbit [1] (setting [9]); 1.25 mg/kg/day in the data set on rabbit [1] (setting [10]); 0.09 mg/kg/day in the data set on dog (setting [11]); 0.53 mg/kg/day in the data set with dog (setting [12]). Further, the NOAEL with rabbit [1] (setting [8]) is 0.25 mg/kg/day; in the data set on rabbit [1] (setting [9]), not below 7.5 mg/kg/day; with rabbit [1] (setting [10]) it was 1.25 mg/kg/day; with dog (setting [11]) it was 0.09 mg/kg/day; with dog (setting [12]), not below 3.43 mg/kg/day.

For `CC(C)NCC(O)c1ccc(O)c(O)c1.Cl` (stereo unspecified) [Isoproterenol hydrochloride], in the data set on rat [2] (setting [13]), the LEL came out at 20 mg/kg/day, the LOAEL is more than 80 mg/kg/day, the NEL is less than 20 mg/kg/day and the NOAEL is not below 80 mg/kg/day. In the data set on rat [2] (setting [14]), the LEL was 20 mg/kg/day, the LOAEL was more than 80 mg/kg/day, the NEL was less than 20 mg/kg/day and the NOAEL is not below 80 mg/kg/day.

As to `CC(=O)N1CCN(c2ccc(OC[C@@H]3CO[C@@](Cn4ccnc4)(c4ccc(Cl)cc4Cl)O3)cc2)CC1` [Ketoconazole], in the data set with rat [3] (setting [15]), the LEL amounted to 100 mg/kg/day, the LOAEL is more than 100 mg/kg/day, the NEL turned out to be 25 mg/kg/day and the NOAEL was not below 100 mg/kg/day. In the data set on rat [3] (setting [16]), the LOAEL is more than 100 mg/kg/day and the NOAEL is not below 100 mg/kg/day. Further, in the data set on rat [3] (setting [17]), the LEL was determined as 6.25 mg/kg/day and the NEL is less than 6.25 mg/kg/day.

`CC1COC(=O)O1` (stereo unspecified) [Propylene carbonate]: in the data set with rat [4] (setting [18]), the LEL was determined as 5000 mg/kg/day, the LOAEL stood at 5000 mg/kg/day, the NEL was found to be 3000 mg/kg/day and the no observed adverse effect level (NOAEL) was determined as 3000 mg/kg/day. Moreover, in the data set on rat [4] (setting [19]), the LEL is 3000 mg/kg/day, the LOAEL is 3000 mg/kg/day, the NEL amounted to 1000 mg/kg/day and the NOAEL worked out at 1000 mg/kg/day.

For `CCCCOCCOC(=O)COc1nc(Cl)c(Cl)cc1Cl` [Triclopyr-butotyl], the LEL with rabbit [5] (setting [20]) worked out at 100 mg/kg/day; with rabbit [5] (setting [21]), 100 mg/kg/day; in the data set with rat [6] (setting [22]), 300 mg/kg/day; with rat [6] (group: maternal, systemic / in life observation / body weight / body weight gain), 30 mg/kg/day. Further, the LOAEL in the data set with rabbit [5] (setting [20]) was 100 mg/kg/day; in the data set on rabbit [5] (setting [21]), 100 mg/kg/day; in the data set on rat [6] (setting [22]) it was more than 300 mg/kg/day; with rat [6] (setting [23]), more than 300 mg/kg/day. Moreover, the NEL in the data set with rabbit [5] (setting [20]) was found to be 30 mg/kg/day; in the data set on rabbit [5] (setting [21]), 30 mg/kg/day; with rat [6] (setting [22]) it was 100 mg/kg/day; with rat [6] (setting [23]), 5 mg/kg/day. Besides, the no-observed-adverse-effect level (NOAEL) in the data set on rabbit [5] (setting [20]) was 30 mg/kg/day; with rabbit [5] (setting [21]), 30 mg/kg/day; with rat [6] (setting [22]), not below 300 mg/kg/day; in the data set on rat [6] (setting [23]) it was not below 300 mg/kg/day.

For the compound `CCOC(=O)C1CC(=O)C(=C(O)C2CC2)C(=O)C1` (stereo unspecified) [Trinexapac-ethyl], in the data set on rat [7] (setting [24]), the LEL was 1250 mg/kg/day and the NEL was found to be 592 mg/kg/day. Moreover, in the data set with rat [7] (setting [25]), the LEL came to 592 mg/kg/day and the LOAEL was found to be 592 mg/kg/day. Moreover, in the data set with rat [7] (setting [26]), the NEL worked out at 59.1 mg/kg/day and the NOAEL came out at 59.1 mg/kg/day.

As usually defined, the LOAEL is the lowest dose or exposure tested at which an adverse effect was seen. As a reminder, the NOAEL is the highest tested level that showed no adverse finding.
